Measured values as given in patent US12440479B2, “Prevention or treatment of chronic organ injury” (GEORG-AUGUST-UNIVERSITAET GOETTINGEN, STIFTUNG …, priority 2018, dated 2025).

How the values were obtained:
[1] = system: UUO-challenged kidneys; assay: Unilateral ureteral obstruction (UUO): tubular injury and interstitial fibrosis (histology, immunostaining); assay type: in vivo, mice; details: UUO; for tubular injury and tubulointerstitial fibrosis: VMO 12.5 mg/kg intraperitoneally or FK506 0.2 mg/kg orally per day; for effect of FK506 on ALK3 expression or reno-protection: VMO added to FK506
[2] = system: FKBP12, YY1, ARNT; assay: In vivo-morpholino knockdown: intrarenal protein levels (immunostaining, immunoblotting); details: UUO mice, VMO 12.5 mg/kg intraperitoneally, vs control-VMO
Protocol: Mice were injected intraperitoneally with 12.5 mg/kg body weight in vivo-morpholinos (Gene Tools, Philomath, USA) in saline at a final volume of 100 μL every other day starting two days prior of surgery (114), sequence alignments were performed using NCBI Nucleotide Blast and are listed in Tables 3-5 (157). A control in vivo-morpholino that targets a human β-globin intron mutation was used as standard control (116).
(§1) For immunofluorescent staining, primary antibodies against ARNT (5537S, Cell Signaling, Danvers, USA), Hif1α (H6535, Sigma, St. Louis, USA), Hif2α (ab20654, Abcam Biochemicals, Cambridge, UK), phosphorylated Smad1/5/8 (pSmad1/5/8, sc-12353, Santa Cruz Biotechnology, Dallas, USA), CD45 (550539, BD Biosciences, Franklin Lakes, USA), Collagen-1 (ab34710, Abcam Biochemicals, Cambridge, UK), α-smooth muscle actin (aSMA, A5228, Sigma, St. Louis, USA), FKBP12 (ab2918, Abcam Biochemicals, Cambridge, UK) and YY1 (ab12132, Abcam Biochemicals, Cambridge, UK) were used, secondary antibodies were labeled with Alexa Fluor 488 or 568 (Life Technologies, Carlsbad, USA). Renal basement membranes were stained with antibodies against Collagen-4 (1340-30, SouthernBiotech, Birmingham, USA), cardiac cell membranes with antibodies against WGA (W11261, Life Technologies, Carlsbad, USA). Nuclear staining was performed using 4′,6-diamidino-2-phenylindole (DAPI, Vector Laboratories, Burlingame, USA). Relative areas positive for Collagen-1, aSMA, tubular nuclei positive for ARNT and pSmad1/5/8 were quantified in 10 high power fields per section at 400× magnification.
Tissue and cells were homogenized in NP40 lysis buffer (Life technologies, Carlsbad, USA) supplemented with protease inhibitor cocktail (Roche, Basel, Switzerland). […] Luminescence was detected by using chemiluminescent substrate (Cell Signaling, Danvers, USA) on a ChemiDoc XRS system (Bio-Rad, Hercules, USA). […]

[3] = system: intrarenal ARNT/ALK3 signaling; assay: UUO kidneys: ARNT/ALK3 expression and pSmad1/5/8 (qRT-PCR, immunoblotting, immunostaining); assay type: in vivo, mice; details: for intrarenal ARNT, ALK3 and nuclear pSmad1/5/8 immunostaining: UUO, VMO 12.5 mg/kg intraperitoneally or FK506 0.2 mg/kg orally per day
Protocol: Eight to twelve weeks-old C57/6, yGTcre−;Yy1fl/fl and yGTcre+;Yy1fl/fl mice were anesthetized with isoflurane inhalation (2-3%), analgesia was performed by subcutaneous injection of 0.1 mg/kg body weight per day Buprenorphine. The ureter was separated from the surrounding tissues and two ligatures were placed about 5 mm apart in upper two-thirds of the left ureter to obtain reliable obstruction. Mice were sacrificed 3, 7 or 10 days after ureteral obstruction for further analyses, as described before (53, 153-155).
Paraffin-embedded specimens were deparaffinized in xylene and rehydrated in ethanol containing distilled water. Tissue sections were stained using polyclonal antibodies against ALK3 (sc-20736, Santa Cruz Biotechnology, Dallas, USA) and ARNT (3718S, Cell Signaling, Danvers, USA), peroxidase labeling was performed using Vectastain Universal Elite ABC Kit (Vector Laboratories, Burlingame, USA) according to the manufacturer's protocol. AEC Substrate-Chromogen (Dako, Glostrup, Denmark) was applied for peroxidase visualization according to the manufacturer's protocol. Nuclear counterstain was performed by using Mayer's Hematoxylin Solution (Sigma, St. Louis, USA).
as §1
For SYBR-based real-time PCR, cDNA synthesis was performed by using DNase I digestion (Invitrogen, Carlsbad, USA) and SuperScript II Reverse Transcriptase (Invitrogen, Carlsbad, USA) according to the manufacturer's protocol. 1 μL of reverse-transcribed cDNA was added to the reaction mixture containing the primer pair (200 nmol/L each) and diluted 2× Fast SYBR Green Master Mix (Applied Biosystems, Carlsbad, USA) in a final volume of 20 μL for each PCR reaction. The real-time PCR reactions were performed in a 96-well reaction plate using the StepOne Plus Real-Time System (Applied Biosystems, Carlsbad, USA) and were done in triplicates. An initiation step at 95° C. for 20 seconds was followed by 40 cycles at 95° C. for 3 to seconds and 60° C. for 30 seconds, with one cycle of dissociation at 95° C. for 15 seconds, 60° C. for 60 seconds, and 95° C. for 15 seconds. The intercalation of SYBR Green dye and its fluorescent signal is directly proportional to the amount of amplified DNA and was transformed into the cycle threshold (Ct). For normalization, the Ct values of the housekeeping genes Gapdh and Actb were subtracted from the Ct values of the gene of interest to generate the dCt values. The relative expression levels were calculated using the equation 2^−ddCt.
Tissue and cells were homogenized in NP40 lysis buffer (Life technologies, Carlsbad, USA) supplemented with protease inhibitor cocktail (Roche, Basel, Switzerland).

[4] = system: ARNT/HIF1β homodimer; assay: ARNT/HIF1β homodimer formation upon PP1/PP2A inhibition; details: for ARNT/HIF1β homodimer formation: Okadaic acid: PP1/PP2A inhibition, Tautomycin: PP1, LB-100: PP2A
Source text: Based on previous reports that combined inhibition of PP1/PP2A with Okadaic acid is capable to induce ARNT/HIF1β homodimer formation and transactivation activity by directly blocking ARNT dephosphorylation (163), the inventors first confirmed enhanced […] homodimer formation upon PP1/PP2A inhibition (FIG. 57A). […] See also FIG. 58.

[5] = system: parenchymal organs; details: LB-100 2 mg/kg in combination with FK506 0.2 mg/kg s.c. or GPI-1046 10 mg/kg s.c.
Protocol: Mice were injected intraperitoneally with 2 mg/kg body weight LB-100 (LDN, Sigma, St. Louis, USA) every alternate day starting at the day of surgery, control mice received equivalent volume of vehicle buffer.

[6] = FK506 0.02-5.0 mg/kg or CsA 10 mg/kg orally per day starting one day prior to UUO

Fkbp12-VMO: in vivo-morpholinos targeting translational start site of Fkbp12 (SEQ ID NO: 9) (antisense AGATGGTCTCCACCTGCACTCCCAT; all phosphorodiamidate morpholino (PMO); in vivo-morpholino, delivery moiety not given here, further chemistry not fully specified)
tubular injury and tubulointerstitial fibrosis [1]: attenuated | effect of FK506 on ALK3 expression or reno-protection [1]: did not further enhance | intrarenal protein levels of respective transcript [2]: effectively reduced | intrarenal ARNT, ALK3 and nuclear pSmad1/5/8 immunostaining [3]: equally induced

C=C1[C@@H](O)[C@@H]2O[C@]3(CC[C@H](/C=C/[C@@H](C)[C@@H]4CC(C)=C[C@@]5(O[C@H](C[C@@](C)(O)C(=O)O)CC[C@H]5O)O4)O3)CC[C@H]2O[C@@H]1[C@@H](O)C[C@H](C)[C@H]1O[C@@]2(CCCCO2)CC[C@H]1C [Okadaic acid]
ARNT/HIF1β homodimer formation [4]: enhanced

Yy1-VMO: in vivo-morpholinos targeting translational start site of Yy1 (SEQ ID NO: 10) (antisense TGTAGAGGGTGTCGCCCGAGGCCAT; all phosphorodiamidate morpholino (PMO); in vivo-morpholino, delivery moiety not given here, further chemistry not fully specified)
tubular injury and tubulointerstitial fibrosis [1]: attenuated | effect of FK506 on ALK3 expression or reno-protection [1]: did not further enhance | intrarenal protein levels of respective transcript [2]: effectively reduced | intrarenal ARNT, ALK3 and nuclear pSmad1/5/8 immunostaining [3]: equally induced

Cyclosporine A [CsA]
chronic tubular injury [1, 6]: failed to attenuate | interstitial fibrosis [1, 6]: failed to attenuate | expression of ALK3 ([3]; UUO-challenged murine kidneys, treatment starting one day prior): failed to induce

CO[C@H]([C@H](O)CC(=O)[C@@H](C)[C@@H](O)CC[C@@H](C)[C@@H]1O[C@]2(CC[C@@H](C)[C@H](CC[C@H](C)C(C)=O)O2)CC[C@@H]1C)[C@H](OC(=O)C[C@@H](O)C1=C(C)C(=O)OC1=O)C(C)C [Tautomycin]
ARNT/HIF1β homodimer formation [4]: did not affect

Arnt-VMO: in vivo-morpholinos targeting translational start site of Arnt (antisense AAGAGCCACTCCGCAGATTAGGCAC; all phosphorodiamidate morpholino (PMO); in vivo-morpholino, delivery moiety not given here, further chemistry not fully specified)
intrarenal protein levels of respective transcript [2]: effectively reduced

CN1CCN(C(=O)C2C(C(=O)O)[C@H]3CC[C@@H]2O3)CC1 (stereo partly drawn) [LB-100]
ARNT/HIF1β homodimer formation [4]: enhanced | endogenous ARNT ([4]; by protection from degradation): effectively increases | ARNT homodimer formation (mass spectrometry) ([4]; in the presence of LB-100): enhancement | protection by FK506/GPI-1046 [5]: enhances protection
